Laboratory results: patent US11076594B2, “Pyrazolone compound or salt thereof, preparation method therefor, herbicide composition and use thereof” (QINGDAO KINGAGROOT CHEMICAL COMPOUNDS CO., LTD., priority 2015, dated 2021)

Experiments:
Type in all cases: in vivo
corn = assay: post-emergence stage experiment, crop (Table 1); conditions: post-emergence spray at 4-5 leaf stage, 250 g/ha active ingredient with 450 kg/ha water, rated after 3 weeks in greenhouse
Method in brief: (§1)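 Weeds and crops grown in soil-filled pots in a greenhouse were sprayed at the 4-5 leaf stage (2-3 weeks after sowing). Compounds were applied in acetone with tween 80, diluted in water. After 3 weeks' culture, growth control was scored as fresh weight control rate.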

wheat [1] = assay: post-emergence stage experiment, crop (Table 1); conditions: post-emergence spray at 4-5 leaf stage, 250 g/ha active ingredient with 450 kg/ha water, rated after 3 weeks in greenhouse
Method in brief: as §1

shepherd's purse = assay: wheat field resistant broadleaf weed control, greenhouse spray at 4 leaf stage; set-up: key: Level 10: completely dead; Level 9: above 95% growth control rate; Level 8: above 90% growth control rate; Level 7: above 80% growth control rate; Level 6: above 70% growth control rate; Level 5: above 60% growth control rate; Level 4: above 50% growth control rate; Level 3: above 20% growth control rate; Level 2: 5%-20% growth control rate; Level 1: below 5% growth control rate; conditions: 250 g/ha of the active substance; 4 weeks after treatment; ALS inhibitor resistant
Experimental: (§2) The activity level standard of harmful plant destruction (i.e. growth control rate) is as follows:
(§3) The above described growth control rate is fresh weight control rate.
(§4) The seeds of alopecurus japonicas, flixweed, shepherd's purse, corn gromwell, chickweed, beckmannia syzigachne, and annual ryegrass and wheat seeds were put into a plastic pot loaded with soil, and then covered with 0.5-2 cm soil, the seeds were allowed to grow in good greenhouse environment. The test plants were treated at 4 leaf stage 2-3 weeks after sowing. The test compounds of the present invention were dissolved in acetone respectively, then added with methyl oleate emulsion and diluted by certain amount of water to certain concentration. The solution was sprayed to the plant with a sprayer. Then the plants were cultured for 4 weeks in greenhouse.

flixweed = assay: as above; set-up: key: Level 10: completely dead; Level 9: above 95% growth control rate; Level 8: above 90% growth control rate; Level 7: above 80% growth control rate; Level 6: above 70% growth control rate; Level 5: above 60% growth control rate; Level 4: above 50% growth control rate; Level 3: above 20% growth control rate; Level 2: 5%-20% growth control rate; Level 1: below 5% growth control rate; conditions: 250 g/ha of the active substance; 4 weeks after treatment; ALS inhibitor resistant
Experimental: as §2, §3, §4

corn gromwell = assay: as above; set-up: key: Level 10: completely dead; Level 9: above 95% growth control rate; Level 8: above 90% growth control rate; Level 7: above 80% growth control rate; Level 6: above 70% growth control rate; Level 5: above 60% growth control rate; Level 4: above 50% growth control rate; Level 3: above 20% growth control rate; Level 2: 5%-20% growth control rate; Level 1: below 5% growth control rate; conditions: 250 g/ha of the active substance; 4 weeks after treatment; ALS inhibitor resistant
Experimental: as §2, §3, §4

chickweed = assay: as above; set-up: key: Level 10: completely dead; Level 9: above 95% growth control rate; Level 8: above 90% growth control rate; Level 7: above 80% growth control rate; Level 6: above 70% growth control rate; Level 5: above 60% growth control rate; Level 4: above 50% growth control rate; Level 3: above 20% growth control rate; Level 2: 5%-20% growth control rate; Level 1: below 5% growth control rate; conditions: 250 g/ha of the active substance; 4 weeks after treatment; ALS inhibitor resistant
Experimental: as §2, §3, §4

rice = assay: post-emergence stage experiment, crop (Table 1); set-up: key: Level 10: completely dead; Level 9: above 95% growth control rate; Level 8: above 90% growth control rate; Level 7: above 80% growth control rate; Level 6: above 70% growth control rate; Level 5: above 60% growth control rate; Level 4: above 50% growth control rate; Level 3: above 20% growth control rate; Level 2: 5%-20% growth control rate; Level 1: below 5% growth control rate; conditions: post-emergence spray at 4-5 leaf stage, 250 g/ha active ingredient with 450 kg/ha water, rated after 3 weeks in greenhouse
Method in brief: as §1

wheat [2] = assay: wheat field test, crop selectivity, greenhouse spray at 4 leaf stage; conditions: 250 g/ha of the active substance; 4 weeks after treatment
Method in brief: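 Seeds sown in soil-filled pots, covered 0.5-2 cm, greenhouse-grown; sprayed at 4 leaf stage (2-3 wk); acetone/methyl oleate emulsion/water formulation; 4 wk greenhouse; fresh wt control rate.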

Indian mallow = assay: weed control effect in post-emergence stage (Table 1); set-up: key: Level 10: completely dead; Level 9: above 95% growth control rate; Level 8: above 90% growth control rate; Level 7: above 80% growth control rate; Level 6: above 70% growth control rate; Level 5: above 60% growth control rate; Level 4: above 50% growth control rate; Level 3: above 20% growth control rate; Level 2: 5%-20% growth control rate; Level 1: below 5% growth control rate; conditions: post-emergence spray at 4-5 leaf stage, 250 g/ha active ingredient with 450 kg/ha water, rated after 3 weeks in greenhouse
Method in brief: as §1

crab grass = assay: as above; set-up: key: Level 10: completely dead; Level 9: above 95% growth control rate; Level 8: above 90% growth control rate; Level 7: above 80% growth control rate; Level 6: above 70% growth control rate; Level 5: above 60% growth control rate; Level 4: above 50% growth control rate; Level 3: above 20% growth control rate; Level 2: 5%-20% growth control rate; Level 1: below 5% growth control rate; conditions: post-emergence spray at 4-5 leaf stage, 250 g/ha active ingredient with 450 kg/ha water, rated after 3 weeks in greenhouse
Method in brief: as §1

echinochloa = assay: as above; set-up: key: Level 10: completely dead; Level 9: above 95% growth control rate; Level 8: above 90% growth control rate; Level 7: above 80% growth control rate; Level 6: above 70% growth control rate; Level 5: above 60% growth control rate; Level 4: above 50% growth control rate; Level 3: above 20% growth control rate; Level 2: 5%-20% growth control rate; Level 1: below 5% growth control rate; conditions: post-emergence spray at 4-5 leaf stage, 250 g/ha active ingredient with 450 kg/ha water, rated after 3 weeks in greenhouse
Method in brief: as §1

bidens bipinnata = assay: as above; set-up: key: Level 10: completely dead; Level 9: above 95% growth control rate; Level 8: above 90% growth control rate; Level 7: above 80% growth control rate; Level 6: above 70% growth control rate; Level 5: above 60% growth control rate; Level 4: above 50% growth control rate; Level 3: above 20% growth control rate; Level 2: 5%-20% growth control rate; Level 1: below 5% growth control rate; conditions: post-emergence spray at 4-5 leaf stage, 250 g/ha active ingredient with 450 kg/ha water, rated after 3 weeks in greenhouse
Method in brief: as §1

rorippa indica = assay: as above; set-up: key: Level 10: completely dead; Level 9: above 95% growth control rate; Level 8: above 90% growth control rate; Level 7: above 80% growth control rate; Level 6: above 70% growth control rate; Level 5: above 60% growth control rate; Level 4: above 50% growth control rate; Level 3: above 20% growth control rate; Level 2: 5%-20% growth control rate; Level 1: below 5% growth control rate; conditions: post-emergence spray at 4-5 leaf stage, 250 g/ha active ingredient with 450 kg/ha water, rated after 3 weeks in greenhouse
Method in brief: as §1

foxtail = assay: as above; set-up: key: Level 10: completely dead; Level 9: above 95% growth control rate; Level 8: above 90% growth control rate; Level 7: above 80% growth control rate; Level 6: above 70% growth control rate; Level 5: above 60% growth control rate; Level 4: above 50% growth control rate; Level 3: above 20% growth control rate; Level 2: 5%-20% growth control rate; Level 1: below 5% growth control rate; conditions: post-emergence spray at 4-5 leaf stage, 250 g/ha active ingredient with 450 kg/ha water, rated after 3 weeks in greenhouse
Method in brief: as §1

Row | SMILES | effect on crop, Corn (level) (corn) | effect on crop, Wheat (level) (wheat [1]) | shepherd's purse weed controlling effect (activity level) (shepherd's purse) | flixweed weed controlling effect (activity level) (flixweed) | corn gromwell weed controlling effect (activity level) (corn gromwell) | chickweed weed controlling effect (activity level) (chickweed) | effect on crop, Rice (level) (rice) | Wheat (activity level, crop damage) (wheat [2]) | weed control effect, Indian mallow (level) (Indian mallow) | weed control effect, Crab grass (level) (crab grass) | weed control effect, Echinochloa (level) (echinochloa) | weed control effect, Bidens bipinnata (level) (bidens bipinnata) | weed control effect, Rorippa indica (level) (rorippa indica) | weed control effect, Green foxtail (level) (foxtail)
1 | CCc1nn(C)c(OC(=O)c2cn(C)nc2C)c1C(=O)c1ccc(C(F)(F)F)c(N2CCCCC2=O)c1Cl [Compound 111] | 1 (Level 1: below 5% growth control rate) | 1 (Level 1: below 5% growth control rate) | 10 | 10 | 10 | 10 | 10 | 1 (Level 1: below 5% growth control rate) | 10 | 3 (Level 3: above 20% growth control rate) | 10 | 4 (Level 4: above 50% growth control rate) | 10 | 2 (Level 2: 5%-20% growth control rate)
2 | CCc1nn(C)c(OC(=O)c2cn(C)nc2C)c1C(=O)c1ccc(C(F)(F)F)c(N2CCCCCC2=O)c1Cl [Compound 121] | 1 (Level 1: below 5% growth control rate) | 1 (Level 1: below 5% growth control rate) | 10 | 10 | 10 | 10 | 6 (Level 6: above 70% growth control rate) | 1 (Level 1: below 5% growth control rate) | 5 (Level 5: above 60% growth control rate) | 4 (Level 4: above 50% growth control rate) | 10 | 3 (Level 3: above 20% growth control rate) | 10 | 9 (Level 9: above 95% growth control rate)
3 | Cc1nn(C)cc1C(=O)Oc1c(C(=O)c2ccc(C(F)(F)F)c(N3CCCCCC3=O)c2Cl)c(C)nn1C [Compound 058] | 1 (Level 1: below 5% growth control rate) | 0 | 10 | 10 | 10 | 10 | 2 (Level 2: 5%-20% growth control rate) | 0 | 10 | 1 (Level 1: below 5% growth control rate) | 4 (Level 4: above 50% growth control rate) | 4 (Level 4: above 50% growth control rate) | 10 | 1 (Level 1: below 5% growth control rate)
4 | CCOc1c(C(=O)Oc2c(C(=O)c3ccc(C(F)(F)F)c(N4CCCCCC4=O)c3Cl)c(C3CC3)nn2C)cnn1C [Compound 060] | 0 | 0 | 10 | 10 | 10 | 10 | 1 (Level 1: below 5% growth control rate) | 0 | 10 | 3 (Level 3: above 20% growth control rate) | 5 (Level 5: above 60% growth control rate) | 7 (Level 7: above 80% growth control rate) | 10 | 1 (Level 1: below 5% growth control rate)
5 | CCOc1c(C(=O)Oc2c(C(=O)c3ccc(C(F)(F)F)c(N4CCCCCC4=O)c3Cl)c(C)nn2C)cnn1C [Compound 056] | 0 | 0 | 10 | 10 | 10 | 10 | 3 (Level 3: above 20% growth control rate) | 0 | 10 | 3 (Level 3: above 20% growth control rate) | 5 (Level 5: above 60% growth control rate) | 5 (Level 5: above 60% growth control rate) | 10 | 1 (Level 1: below 5% growth control rate)
6 | CCn1nc(C2CC2)c(C(=O)c2ccc(C(F)(F)F)c(-n3cccn3)c2Cl)c1O [Compound 134] | 3 (Level 3: above 20% growth control rate) | 1 (Level 1: below 5% growth control rate) | 10 | 10 | 10 | 10 | 10 | 1 (Level 1: below 5% growth control rate) | 10 | 2 (Level 2: 5%-20% growth control rate) | 6 (Level 6: above 70% growth control rate) | 9 (Level 9: above 95% growth control rate) | 10 | 10
